{
  "source": "paper PMC7305796",
  "about": "(Antiviral research, 2019)",
  "key": {"VEEV TC-83 [1]": {"test_system": "VEEV TC-83", "assay_type": "cell-based, Venezuelan equine encephalitis virus"}, "[2]": {"settings": "mouse, microsomes"}, "[3]": {"test_system": "VEEV Trinidad Donkey (TrD)", "design": "species or system BALB/c mice", "settings": "mouse, in vivo"}, "VEEV TC-83 [4]": {"test_system": "VEEV TC-83", "settings": "mouse, in vivo; cited from earlier work"}, "VEEV TC-83 [5]": {"test_system": "VEEV TC-83", "assay": "microbe, parasite or virus in culture", "assay_type": "cell-based", "settings": "Venezuelan equine encephalitis virus, Vero 76, 48 h, read-out: VEEV EC50"}, "[6]": {"settings": "mouse"}, "[7]": {"settings": "mouse", "remark": "listed apart in the source"}},
  "data": [
    {"smiles": "CN1CCN(C)/C(=N/c2ccc([N+](=O)[O-])cc2C(=O)Nc2ccccc2)C1", "note": "[ML336, (E)-2-((1,4-dimethylpiperazin-2-ylidene)amino)-5-nitro-N-phenylbenzamide]", "values": [
      {"measurement": "VEEV log titer reduction", "setting": "VEEV TC-83 [1]", "result": "7.0 ± 0.4", "unit": "log"},
      {"measurement": "Microsomal stability, % parent after 1h", "setting": "[2]", "result": 42.9, "unit": "%"},
      {"measurement": "protection of mice (survival)", "setting": "[3]", "result": 100, "unit": "%"},
      {"measurement": "survival rate", "setting": "VEEV TC-83 [4]", "result": 71, "unit": "%"},
      {"measurement": "EC50", "setting": "VEEV TC-83 [5]", "result": "32 ± 5", "unit": "nM"},
      {"measurement": "Plasma stability, % parent after 3h", "setting": "[6]", "result": 65.4, "unit": "%"},
      {"measurement": "plasma protein binding, % bound at 1 μM", "setting": "[7]", "result": "85.0 / 77.0%"},
      {"measurement": "plasma protein binding, % bound at 10 μM", "setting": "[7]", "result": "85.0 / 77.0%"}
    ]}
  ]
}
